Reference: ChEMBL document CHEMBL4004804, “Rationally designed benzopyran fused isoxazolidines and derived β2,3,3-amino alcohols as potent analgesics: Synthesis, biological evaluation and molecular docking analysis” (Eur J Med Chem, 2017)
pIC50: −log10 of the molar value. The source made the active and inactive calls. No cut-off for these calls is given here.

How the values were obtained:
Mus musculus [1] = test: Analgesic activity in Swiss albino mouse assessed as inhibition of acetic acid-induced abdominal constriction at 10 mg/kg administered for 30 mins followed by acetic acid challenge measured after 30 mins relative to vehicle-treated control; assay type: functional; conditions: 0.5 h
Mus musculus [2] = test: Analgesic activity in Swiss albino mouse assessed as inhibition of acetic acid-induced abdominal constriction at 100 ug/kg administered for 30 mins followed by acetic acid challenge measured after 30 mins; assay type: functional
Mus musculus [3] = test: Analgesic activity in Swiss albino mouse assessed as inhibition of formalin-induced paw flinching at 10 mg/kg administered for 30 mins followed by formalin challenge measured during 10 to 30 mins post formalin challenge relative to vehicle-treated control; assay type: functional
Mus musculus [4] = test: Analgesic activity in Swiss albino mouse assessed as inhibition of formalin-induced paw flinching at 10 mg/kg administered for 30 mins followed by formalin challenge measured during first 5 mins post formalin challenge; assay type: functional
Mus musculus [5] = test: Acute toxicity in Swiss albino mouse assessed as effect on myocardium at 2000 mg/kg after 14 days by hematoxylin and eosin staining based assay; assay type: organism-based; conditions: in vivo, 336 h
Mus musculus [6] = test: Analgesic activity in Swiss albino mouse assessed as inhibition of formalin-induced paw flinching at 10 mg/kg administered for 30 mins followed by formalin challenge measured during 10 to 30 mins post formalin challenge in presence of opioid receptor antagonist naloxone; assay type: functional, organism-based
THP-1 [7] = test: Antiinflammatory activity in PMA-treated human THP1 cells assessed as inhibition of LPS-induced TNF-alpha production after 24 hrs by ELISA; assay type: functional, cell-based; conditions: THP-1, 24 h
Mus musculus [8] = test: Analgesic activity in Swiss albino mouse assessed as inhibition of acetic acid-induced abdominal constriction at 10 mg/kg administered for 30 mins followed by acetic acid challenge measured after 30 mins in presence of prostaglandin analogue misoprostol; assay type: functional, organism-based
THP-1 [9] = test: Antiinflammatory activity in PMA-treated human THP1 cells assessed as inhibition of LPS-induced IL-6 production after 24 hrs by ELISA; assay type: functional, cell-based; conditions: THP-1, 24 h
Mus musculus [10] = test: Acute toxicity in Swiss albino mouse assessed as behavioral abnormality at 50 to 2000 mg/kg after 14 days; assay type: organism-based; conditions: in vivo, 336 h
Mus musculus [11] = test: Analgesic activity in Swiss albino mouse assessed as inhibition of acetic acid-induced abdominal constriction at 10 mg/kg administered for 30 mins followed by acetic acid challenge measured after 30 mins in presence of opioid receptor antagonist naloxone; assay type: functional, organism-based
THP-1 [12] = test: Cytotoxicity against human THP1 cells assessed as decrease in cell proliferation after 24 to 48 hrs by MTT assay; assay type: cell-based
Mus musculus [13] = test: Acute toxicity in Swiss albino mouse assessed as effect on liver at 2000 mg/kg after 14 days by hematoxylin and eosin staining based assay; assay type: organism-based; conditions: in vivo, 336 h
Mus musculus [14] = test: Analgesic activity in Swiss albino mouse assessed as inhibition of formalin-induced paw flinching at 80 ug/kg administered for 30 mins followed by formalin challenge measured during 10 to 30 mins post formalin challenge; assay type: functional
Mus musculus [15] = test: Analgesic activity in Swiss albino mouse assessed as inhibition of acetic acid-induced abdominal constriction at 80 ug/kg administered for 30 mins followed by acetic acid challenge measured after 30 mins; assay type: functional

Cc1ccc2c(c1)[C@@]1(C)[C@@H](CO2)CON1C
inhibition in vivo at 10 mg/kg (Mus musculus [1]): 68.2%

CN[C@@]1(C)c2cc(C)ccc2OC[C@H]1CO
inhibition in vivo at 10 mg/kg (Mus musculus [1]): 59.3%

CCCC[C@](C)(O)C/C=C/[C@H]1[C@H](O)CC(=O)[C@@H]1CCCCCCC(=O)OC
inhibition (Mus musculus [2]): inactive

COc1ccc2c(c1)c(CC(=O)O)c(C)n2C(=O)c1ccc(Cl)cc1 [INDOMETHACIN]
inhibition in vivo at 10 mg/kg (Mus musculus [3]): 50.6% | inhibition in vivo at 10 mg/kg (Mus musculus [1]): 56.7% | inhibition (Mus musculus [4]): inactive

COc1ccc2c(c1)[C@@]1(C)[C@@H](CO2)CON1C
inhibition in vivo at 10 mg/kg (Mus musculus [3]): 68.3% | Activity (Mus musculus [5]): Non-Toxic | inhibition (Mus musculus [6]): inactive | pIC50 (THP-1 [7]): 5.34 | inhibition in vivo at 10 mg/kg (Mus musculus [1]): 69.4% | inhibition (Mus musculus [8]): Active | pIC50 (THP-1 [9]): 5.95 | Activity (Mus musculus [10]): Non-Toxic | inhibition (Mus musculus [11]): inactive | pIC50 (THP-1 [12]): < 4.00 | inhibition in vivo at 10 mg/kg (Mus musculus [4]): 62.7% | Activity (Mus musculus [13]): Non-Toxic

CN[C@@]1(C)c2cc(OC)ccc2OC[C@H]1CO
inhibition in vivo at 10 mg/kg (Mus musculus [1]): 63.2%

C=CCN1CC[C@]23c4c5ccc(O)c4O[C@H]2C(=O)CC[C@@]3(O)[C@H]1C5
inhibition (Mus musculus [14]): inactive | inhibition (Mus musculus [15]): inactive
